Assay results reported in patent US9273067B2, “Pyrazolopyrimidine macrocycles as inhibitors of human immunodeficiency virus replication” (BRISTOL-MYERS SQUIBB COMPANY, priority 2014, dated 2016).
Where “and” joins values, the source holds several entries; their conditions need not be identical. Identical values can stand only once. Like-named read-outs stand apart in the source and are kept apart here.

Legend:
[1] = 20-membered ring
[2] = tested on: NL-RLuc virus (recombinant HIV NL4-3 with Renilla Luciferase) in MT-2 cells; test: Inhibition of HIV replication (NL-RLuc virus in MT-2 cells, luciferase readout); assay type: cell-based, human immunodeficiency virus (HIV); details: MT2, 120 h, NL-RLuc virus infecting MT-2 cells, 5 days of incubation, 10% FBS, luciferase quantitation; at least 2 experiments
In short: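 NL4-3 carrying Renilla luciferase in place of part of nef, produced in 293T cells, was used to infect MT-2 cells in RPMI 1640/10% FBS with serial compound dilutions. After 5 days, virus growth was read by luciferase. EC50 came from the median effect equation over at least 2 experiments.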

Structure (SMILES): Cc1nc2cc3nn2c(c1[C@H](OC(C)(C)C)C(=O)O)N1CCC(C)(CC1)OCC=CC[C@H](C)Oc1cc(Cl)ccc1COC3 [Example 34, (2S)-2-(tert-Butoxy)-2-[(20S)-16-chloro-4,20,26-trimethyl-11,19,25-trioxa-1,5,7,8-tetraazapentacyclo[24.2.2.1^6,^9.0^2,^7.0^13,^18]hentriaconta-2,4,6(31),8,13,15,17,22-octaen-3-yl]acetic acid]
- ring closure, yield after HPLC ([1]; from C=CCOC1(C)CCN(c2c([C@H](OC(C)(C)C)C(=O)O)c(C)nc3cc(COCc4ccc(Cl)cc4O[C@@H](C)CC=C)nn23)CC1, rcm bond, Hoveyda-Grubbs II/CuI, DCE, 31.5 mM, 90.0 °C, 1.5 h): 7.32%
- EC50 [2]: 5 nM

Structure (SMILES): COC(=O)[C@@H](OC(C)(C)C)c1c(C)nc2cc3nn2c1N1CCC(C)(CC1)OCC=Cc1ccccc1COC3
- ring closure, isolated yield (from C=CCOC1(C)CCN(c2c([C@H](OC(C)(C)C)C(=O)OC)c(C)nc3cc(COCc4ccccc4Br)nn23)CC1, cc_pd bond, 17-membered ring, Pd2(dba)3/PPh3/Et3N, acetonitrile, 40.0 mM, 120.0 °C, 18.0 h): 78%

Structure (SMILES): CCOC(=O)[C@@H](OC(C)(C)C)c1c(C)nc2cc3nn2c1N1CCC(C)(CC1)OCC=CCc1cc(C)ccc1COC3
- ring closure, isolated yield (from C=CCOC1(C)CCN(c2c([C@H](OC(C)(C)C)C(=O)OCC)c(C)nc3cc(COCc4ccc(C)cc4CC=C)nn23)CC1, rcm bond, 18-membered ring, Grubbs II (1 eq), then NaBH4/MeOH, DCM, 1.62 mM, 40.0 °C, 2.0 h, 2 steps): 62.6%

Structure (SMILES): CCOC(=O)[C@@H](OC(C)(C)C)c1c(C)nc2cc3nn2c1N1CCC(C)(CC1)OCC=CCCc1cccc(c1)COC3
- ring closure, isolated yield (from C=CCCc1cccc(COCc2cc3nc(C)c([C@H](OC(C)(C)C)C(=O)OCC)c(N4CCC(C)(OCC=C)CC4)n3n2)c1, rcm bond, 20-membered ring, Grubbs II, DCM, 1.62 mM, 2.0 h, 2 steps): 41.8%

Structure (SMILES): CCOC(=O)[C@@H](OC(C)(C)C)c1c(C)nc2cc3nn2c1N1CCC(C)(CC1)OCC=Cc1cc(C(F)(F)F)ccc1COC3
- ring closure, isolated yield (from C=CCOC1(C)CCN(c2c([C@H](OC(C)(C)C)C(=O)OCC)c(C)nc3cc(COCc4ccc(C(F)(F)F)cc4Br)nn23)CC1, cc_pd bond, 17-membered ring, Pd2(dba)3/PPh3/Et3N, MeCN, 35.1 mM, 120.0 °C, 23.0 h): 62.9%

Structure (SMILES): Cc1nc2cc3nn2c(c1[C@H](OC(C)(C)C)C(=O)O)N1CCC(C)(CC1)OCC=CC[C@H](C)Oc1cc(F)cc(F)c1COC3 [Example 31, (2S)-2-(tert-Butoxy)-2-[(20S)-14,16-difluoro-4,20,26-trimethyl-11,19,25-trioxa-1,5,7,8-tetraazapentacyclo[24.2.2.1^6,^9.0^2,^7.0^13,^18]hentriaconta-2,4,6(31),8,13,15,17,22-octaen-3-yl]acetic acid]
- ring closure, yield after HPLC ([1]; from C=CCOC1(C)CCN(c2c([C@H](OC(C)(C)C)C(=O)O)c(C)nc3cc(COCc4c(F)cc(F)cc4O[C@@H](C)CC=C)nn23)CC1, rcm bond, Hoveyda-Grubbs II/CuI, DCE, 11.5 mM, 90.0 °C, 1.5 h): 5.67%
- EC50 [2]: 12 nM

Structure (SMILES): CCOC(=O)[C@@H](OC(C)(C)C)c1c(C)nc2cc3nn2c1N1CCC(C)(CC1)OCC=CC[C@H](C)Oc1cc(F)c(F)cc1COC3
- ring closure, yield after HPLC ([1]; from C=CCOC1(C)CCN(c2c([C@H](OC(C)(C)C)C(=O)OCC)c(C)nc3cc(COCc4cc(F)c(F)cc4O[C@@H](C)CC=C)nn23)CC1, rcm bond, Hoveyda-Grubbs II/CuI, DCE, 4.25 mM, 90.0 °C, 3.0 h): 27%

Structure (SMILES): CCOC(=O)[C@@H](OC(C)(C)C)c1c(C)nc2cc3nn2c1N1CCC(C)(CC1)OCC=CCc1cc(F)ccc1COC3
- ring closure, isolated yield (from C=CCOC1(C)CCN(c2c([C@H](OC(C)(C)C)C(=O)OCC)c(C)nc3cc(COCc4ccc(F)cc4CC=C)nn23)CC1, rcm bond, 18-membered ring, Grubbs II (1 eq), then NaBH4/MeOH, DCM, 1.6 mM, 40.0 °C, 2.0 h, 2 steps): 44.7%

Structure (SMILES): Cc1ccc2c(c1)COCc1cc3nc(C)c([C@H](OC(C)(C)C)C(=O)O)c(n3n1)N1CCC(C)(CC1)OCC=CC[C@H](C)O2 [Example 29, (2S)-2-(tert-Butoxy)-2-[(20S)-4,15,20,26-tetramethyl-11,19,25-trioxa-1,5,7,8-tetraazapentacyclo[24.2.2.1^6,^9.0^2,^7.0^13,^18]hentriaconta-2,4,6(31),8,13,15,17,22-octaen-3-yl]acetic acid]
- ring closure, yield after HPLC ([1]; from C=CCOC1(C)CCN(c2c([C@H](OC(C)(C)C)C(=O)O)c(C)nc3cc(COCc4cc(C)ccc4O[C@@H](C)CC=C)nn23)CC1, rcm bond, Hoveyda-Grubbs II/CuI, DCE, 13.0 mM, 90.0 °C, 3.0 h): 5.64%
- EC50 [2]: 6 nM

Structure (SMILES): CCOC(=O)[C@@H](OC(C)(C)C)c1c(C)nc2cc3nn2c1N1CCC(C)(CC1)OCC=CCc1cc(F)c(F)cc1COC3
- ring closure, isolated yield (from C=CCOC1(C)CCN(c2c([C@H](OC(C)(C)C)C(=O)OCC)c(C)nc3cc(COCc4cc(F)c(F)cc4CC=C)nn23)CC1, rcm bond, 18-membered ring, Grubbs II (0.1 eq), then NaBH4/MeOH, DCM, 1.56 mM, 40.0 °C, 2.0 h, 2 steps): 62.5%

Structure (SMILES): CCOC(=O)[C@@H](OC(C)(C)C)c1c(C)nc2cc3nn2c1N1CCC(C)(CC1)OCC=CCc1ccccc1COC3
- ring closure, isolated yield (from C=CCOC1(C)CCN(c2c([C@H](OC(C)(C)C)C(=O)OCC)c(C)nc3cc(COCc4ccccc4CC=C)nn23)CC1, rcm bond, 18-membered ring, Hoveyda-Grubbs II (20 mol%)/CuI, 1,2-dichloroethane, 1.4 mM, 70.0 °C, 2.0 h): 76%

Structure (SMILES): CCOC(=O)[C@@H](OC(C)(C)C)c1c(C)nc2cc3nn2c1N1CCC(C)(CC1)OCC=CCOc1ccccc1CC(=O)NC3
- ring closure, yield after HPLC ([1]; from C=CCOc1ccccc1CC(=O)NCc1cc2nc(C)c([C@H](OC(C)(C)C)C(=O)OCC)c(N3CCC(C)(OCC=C)CC3)n2n1, rcm bond, Hoveyda-Grubbs II (5 mol%), then NaOH, 1,2-dichloroethane, 8.6 mM, 70.0 °C, 4.0 h, 2 steps): 11.6% and 31.6%

Structure (SMILES): CCOC(=O)[C@@H](OC(C)(C)C)c1c(C)nc2cc3nn2c1N1CCC(C)(CC1)OCCCC[C@H](C)Oc1ccc(F)c(F)c1CCC3
- ring closure, yield after HPLC ([1]; from CCOC(=O)[C@@H](OC(C)(C)C)c1c(C)nc2cc(CCCc3c(O)ccc(F)c3F)nn2c1N1CCC(C)(OCCCC[C@@H](C)O)CC1, ether bond, PPh3/DEAD, THF, 5.2 mM, 3.0 h, 2 steps): 23.6%

Structure (SMILES): CCOC(=O)[C@@H](OC(C)(C)C)c1c(C)nc2cc3nn2c1N1CCC(C)(CC1)OCC=Cc1ccccc1CC=C3
- ring closure, isolated yield (from C=CCOC1(C)CCN(c2c([C@H](OC(C)(C)C)C(=O)OCC)c(C)nc3cc(C=CCc4ccccc4Br)nn23)CC1, cc_pd bond, 17-membered ring, Pd2(dba)3/PPh3/Et3N, acetonitrile, 35.2 mM, 120.0 °C, 20.0 h): 51.6%

Structure (SMILES): Cc1nc2cc3nn2c(c1[C@H](OC(C)(C)C)C(=O)O)N1CCC(C)(CC1)OCC=CC[C@H](C)Oc1ccc(F)cc1COC3 [Example 27, (2S)-2-(tert-Butoxy)-2-[(20S)-15-fluoro-4,20,26-trimethyl-11,19,25-trioxa-1,5,7,8-tetraazapentacyclo[24.2.2.1^6,^9.0^2,^7.0^13,^18]hentriaconta-2,4,6(31),8,13,15,17,22-octaen-3-yl]acetic acid]
- ring closure, yield after HPLC ([1]; from C=CCOC1(C)CCN(c2c([C@H](OC(C)(C)C)C(=O)O)c(C)nc3cc(COCc4cc(F)ccc4O[C@@H](C)CC=C)nn23)CC1, rcm bond, Hoveyda-Grubbs II/CuI, DCE, 0.41 mM, 90.0 °C, 3.0 h): 50.2%
- EC50 [2]: 37 nM
